For one molecule, Control value and Diseased leaf area results are on record in patent US8821888B2, “Xylogone ganodermophthora strain with antifungal activity, and composition including same for preventing plant diseases” (The Director of Chungcheongbuk-Do Agricultural Research and …, priority 2013, dated 2014).

The test system of the assay is Sphaerotheca fusca. As to the kind of experiment: Control effect of sprayed extract on leaves of cucurbitaceous crops infected with Sphaerotheca fusca. Type of assay: in vivo. The conditions noted are these: 4,000 fold dilution, 7 days after spray. Here is the method:
The control effects of the extract of the cultured H55 strain prepared in Example 1 were measured. […] The extract was sprayed once at the initial stage of the development of Sphaerotheca fusca, and at 7 days after the spray of the extract, the control effect of the extract for each crop was measured.

`CCCOC/C(=N\c1ccc(Cl)cc1C(F)(F)F)n1ccnc1` [Triflumizole] came in with a Control value (Cucumbers) of 83.3, a Control value (Melons) of 42.9, a Control value (Oriental melons) of 80.0 and a Control value (Pumpkins) of 62.5. For the same molecule, the Diseased leaf area was determined as 10% (Cucumbers), 40% (Melons), 10% (Oriental melons) and 30% (Pumpkins).
